Laboratory results taken from ChEMBL document CHEMBL1201862, “PubChem BioAssay data set” (2004).
Activity calls are given as the source filed them.

Columns and labels:
CAAX prenyl protease 2 = CAAX prenyl protease 2 (Saccharomyces cerevisiae S288c, UniProt Q03530); format: biochemical
Trypsin = Trypsin (Sus scrofa, UniProt P00761); assay: trypsin protease activity blockade – biochemical, quenched peptide fluorescence, cherry-pick, selectivity assay for Rce1 protease inhibitor project, dose response (AID 488789)
Chain of Trypsin (P00761 whole entry): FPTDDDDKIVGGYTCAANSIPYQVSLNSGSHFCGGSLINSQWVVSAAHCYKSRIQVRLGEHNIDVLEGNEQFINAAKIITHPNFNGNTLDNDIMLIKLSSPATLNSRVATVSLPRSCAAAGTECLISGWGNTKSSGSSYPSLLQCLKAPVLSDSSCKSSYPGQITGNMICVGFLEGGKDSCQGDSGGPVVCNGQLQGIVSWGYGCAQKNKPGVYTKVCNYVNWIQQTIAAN

[1] = molecular target: T1, Dual specificity protein phosphatase 6 (Rattus norvegicus, UniProt Q64346); assay: inhibition of rat DUSP6 enzyme activity – biochemical, in vitro, primary screen (AID 425)
T1 sequence (Q64346 whole entry): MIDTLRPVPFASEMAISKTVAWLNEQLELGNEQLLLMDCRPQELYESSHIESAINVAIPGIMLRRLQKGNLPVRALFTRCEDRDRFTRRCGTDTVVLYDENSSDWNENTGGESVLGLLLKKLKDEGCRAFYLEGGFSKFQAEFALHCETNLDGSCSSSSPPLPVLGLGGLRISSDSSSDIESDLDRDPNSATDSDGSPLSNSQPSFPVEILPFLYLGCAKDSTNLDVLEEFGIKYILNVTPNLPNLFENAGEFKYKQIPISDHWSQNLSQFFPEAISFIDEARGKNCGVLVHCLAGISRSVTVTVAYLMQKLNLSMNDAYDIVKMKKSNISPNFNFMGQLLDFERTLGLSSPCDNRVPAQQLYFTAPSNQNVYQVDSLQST

[2] = molecular target: T2, Tyrosine-protein phosphatase non-receptor type 5 (Homo sapiens, UniProt P54829); assay: PTPN5 enzyme inhibition – biochemical, fluorescence intensity, uHTS hits, confirmation (AID 602372); format: functional; conditions: read-out: IC50_Mean
T2 sequence (P54829 whole entry): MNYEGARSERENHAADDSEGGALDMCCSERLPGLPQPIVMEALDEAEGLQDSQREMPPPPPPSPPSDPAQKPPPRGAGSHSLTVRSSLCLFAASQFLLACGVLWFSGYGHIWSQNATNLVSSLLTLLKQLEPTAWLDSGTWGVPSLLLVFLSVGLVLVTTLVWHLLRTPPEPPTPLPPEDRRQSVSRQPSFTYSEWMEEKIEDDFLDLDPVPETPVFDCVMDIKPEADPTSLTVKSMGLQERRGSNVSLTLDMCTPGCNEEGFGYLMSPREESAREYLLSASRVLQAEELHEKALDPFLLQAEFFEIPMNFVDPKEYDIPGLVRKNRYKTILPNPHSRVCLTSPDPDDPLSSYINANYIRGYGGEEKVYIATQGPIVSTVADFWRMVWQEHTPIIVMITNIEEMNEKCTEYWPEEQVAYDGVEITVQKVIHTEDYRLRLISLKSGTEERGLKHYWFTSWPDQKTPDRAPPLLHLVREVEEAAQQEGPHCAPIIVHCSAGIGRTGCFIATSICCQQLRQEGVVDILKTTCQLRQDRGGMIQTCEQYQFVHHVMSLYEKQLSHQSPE

[3] = molecular target: T3, Dual specificity protein phosphatase 3 (Homo sapiens, UniProt P51452); assay: VHR1 phosphatase inhibitors, primary screen, biochemical, absorbance, uHTS (AID 1654)
T3 sequence (P51452 whole entry): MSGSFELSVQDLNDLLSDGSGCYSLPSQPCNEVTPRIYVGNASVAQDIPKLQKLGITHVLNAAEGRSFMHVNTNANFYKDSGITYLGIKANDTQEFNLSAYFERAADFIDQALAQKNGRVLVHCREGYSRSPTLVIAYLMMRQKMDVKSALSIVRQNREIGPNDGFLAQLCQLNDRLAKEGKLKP

[4] = molecular target: Glucose-6-phosphate 1-dehydrogenase (Homo sapiens, UniProt P11413); assay: inhibition of Homo sapiens G6PD, dose series – biochemical, fluorescence, selectivity assay for P. falciparum G6PD inhibitor project, dose response (AID 504792); format: functional
Chain of Glucose-6-phosphate 1-dehydrogenase (P11413 whole entry): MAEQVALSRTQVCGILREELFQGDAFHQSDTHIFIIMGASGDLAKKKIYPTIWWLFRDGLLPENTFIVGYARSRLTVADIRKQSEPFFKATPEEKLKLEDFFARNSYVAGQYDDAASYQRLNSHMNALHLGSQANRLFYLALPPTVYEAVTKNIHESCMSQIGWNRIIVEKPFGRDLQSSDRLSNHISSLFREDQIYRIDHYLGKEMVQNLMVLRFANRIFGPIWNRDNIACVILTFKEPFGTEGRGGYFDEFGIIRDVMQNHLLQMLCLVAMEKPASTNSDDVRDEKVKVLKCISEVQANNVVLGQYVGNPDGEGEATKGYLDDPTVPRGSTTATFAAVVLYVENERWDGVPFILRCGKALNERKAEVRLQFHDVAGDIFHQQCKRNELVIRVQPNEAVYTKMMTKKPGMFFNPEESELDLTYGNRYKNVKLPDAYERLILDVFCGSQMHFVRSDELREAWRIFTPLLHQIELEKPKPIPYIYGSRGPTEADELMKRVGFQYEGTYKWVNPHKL

[5] = molecular target: T4, Tyrosine-protein phosphatase non-receptor type 11 (Homo sapiens, UniProt Q06124); assay: PTPN11 enzyme inhibitors – biochemical, selectivity assay for STEP inhibitor project, dose response (AID 602367); format: functional; conditions: read-out: IC50_Mean
T4 sequence (Q06124 whole entry): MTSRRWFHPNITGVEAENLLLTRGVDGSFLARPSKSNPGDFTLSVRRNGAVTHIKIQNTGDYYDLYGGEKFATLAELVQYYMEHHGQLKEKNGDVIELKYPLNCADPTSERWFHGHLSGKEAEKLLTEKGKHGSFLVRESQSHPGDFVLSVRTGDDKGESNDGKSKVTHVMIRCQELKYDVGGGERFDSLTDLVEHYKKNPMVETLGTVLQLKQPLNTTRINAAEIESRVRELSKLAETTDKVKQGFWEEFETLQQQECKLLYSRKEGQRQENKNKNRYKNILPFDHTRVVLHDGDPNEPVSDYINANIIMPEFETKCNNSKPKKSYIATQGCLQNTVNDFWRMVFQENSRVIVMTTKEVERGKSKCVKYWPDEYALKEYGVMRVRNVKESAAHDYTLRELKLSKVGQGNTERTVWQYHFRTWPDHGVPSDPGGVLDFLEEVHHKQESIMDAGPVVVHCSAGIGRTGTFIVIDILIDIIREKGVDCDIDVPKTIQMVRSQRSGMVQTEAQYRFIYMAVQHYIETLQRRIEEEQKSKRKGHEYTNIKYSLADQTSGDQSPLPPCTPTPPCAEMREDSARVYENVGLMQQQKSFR

[6] = molecular target: DNA dC->dU-editing enzyme APOBEC-3A (Homo sapiens, UniProt P31941); assay: A3A deaminase inhibition for selectivity – biochemical, dose response (AID 504722); format: functional
Chain of DNA dC->dU-editing enzyme APOBEC-3A (P31941 whole entry): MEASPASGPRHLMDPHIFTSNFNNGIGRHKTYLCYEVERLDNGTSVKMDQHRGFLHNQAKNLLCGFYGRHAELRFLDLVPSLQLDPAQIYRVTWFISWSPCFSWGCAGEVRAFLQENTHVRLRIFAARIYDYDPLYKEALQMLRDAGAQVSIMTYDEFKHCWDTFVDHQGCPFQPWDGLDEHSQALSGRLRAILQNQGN

[7] = molecular target: T3, Dual specificity protein phosphatase 3; assay: VHR1 phosphatase inhibitors, biochemical (AID 1878)
[8] = molecular target: T5, Tyrosine-protein phosphatase non-receptor type 22 (Homo sapiens, UniProt Q9Y2R2); assay: lymphoid phosphatase LYP inhibitors – biochemical, selectivity assay for STEP inhibitor project, dose response (AID 624241); format: functional
T5 sequence (Q9Y2R2 whole entry): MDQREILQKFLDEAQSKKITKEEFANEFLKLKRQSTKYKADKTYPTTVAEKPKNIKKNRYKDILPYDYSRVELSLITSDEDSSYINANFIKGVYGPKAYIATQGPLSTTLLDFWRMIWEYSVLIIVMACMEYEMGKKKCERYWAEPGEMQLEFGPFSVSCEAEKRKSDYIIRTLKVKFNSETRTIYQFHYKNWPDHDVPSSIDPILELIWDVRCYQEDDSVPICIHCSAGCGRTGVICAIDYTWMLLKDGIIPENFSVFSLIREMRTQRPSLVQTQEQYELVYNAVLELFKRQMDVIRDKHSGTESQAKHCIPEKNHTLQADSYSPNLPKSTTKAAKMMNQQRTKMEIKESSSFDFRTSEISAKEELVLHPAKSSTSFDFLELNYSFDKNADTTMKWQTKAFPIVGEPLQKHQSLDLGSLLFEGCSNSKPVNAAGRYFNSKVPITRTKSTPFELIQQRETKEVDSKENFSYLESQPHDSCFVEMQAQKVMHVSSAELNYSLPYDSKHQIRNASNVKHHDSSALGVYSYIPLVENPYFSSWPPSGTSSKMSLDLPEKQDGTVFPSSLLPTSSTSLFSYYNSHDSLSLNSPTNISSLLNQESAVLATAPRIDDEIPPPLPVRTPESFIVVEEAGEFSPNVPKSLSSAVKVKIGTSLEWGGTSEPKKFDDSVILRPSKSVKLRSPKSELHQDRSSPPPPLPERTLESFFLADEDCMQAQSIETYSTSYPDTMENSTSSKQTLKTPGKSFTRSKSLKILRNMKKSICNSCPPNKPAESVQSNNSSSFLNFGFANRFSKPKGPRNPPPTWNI

[9] = molecular target: T3, Dual specificity protein phosphatase 3; assay: VHR phosphatase inhibition, dose response, selectivity assay for STEP inhibitor project, biochemical (AID 602374); format: functional; conditions: read-out: IC50_Mean
[10] = molecular target: DNA dC->dU-editing enzyme APOBEC-3G (Homo sapiens, UniProt Q9HC16); assay: Dose Response confirmation of small molecule APOBEC3G DNA Deaminase Inhibitors via a fluorescence-based single-stranded DNA deaminase assay. [Related pubchem assays (depositor defined):AID493012, AID493028]; format: functional
Chain of DNA dC->dU-editing enzyme APOBEC-3G (Q9HC16 whole entry): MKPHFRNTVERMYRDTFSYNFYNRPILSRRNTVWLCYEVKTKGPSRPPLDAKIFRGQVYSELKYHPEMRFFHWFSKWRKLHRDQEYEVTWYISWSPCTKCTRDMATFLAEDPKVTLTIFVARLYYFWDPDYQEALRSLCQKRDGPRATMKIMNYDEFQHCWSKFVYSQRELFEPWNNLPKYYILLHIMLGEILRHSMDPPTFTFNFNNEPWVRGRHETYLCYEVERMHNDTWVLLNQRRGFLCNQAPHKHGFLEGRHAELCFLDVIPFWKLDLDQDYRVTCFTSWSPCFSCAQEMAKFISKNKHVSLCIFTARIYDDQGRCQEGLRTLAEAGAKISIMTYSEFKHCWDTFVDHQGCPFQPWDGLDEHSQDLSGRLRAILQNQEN

Chain of CAAX prenyl protease 2 (Q03530 whole entry): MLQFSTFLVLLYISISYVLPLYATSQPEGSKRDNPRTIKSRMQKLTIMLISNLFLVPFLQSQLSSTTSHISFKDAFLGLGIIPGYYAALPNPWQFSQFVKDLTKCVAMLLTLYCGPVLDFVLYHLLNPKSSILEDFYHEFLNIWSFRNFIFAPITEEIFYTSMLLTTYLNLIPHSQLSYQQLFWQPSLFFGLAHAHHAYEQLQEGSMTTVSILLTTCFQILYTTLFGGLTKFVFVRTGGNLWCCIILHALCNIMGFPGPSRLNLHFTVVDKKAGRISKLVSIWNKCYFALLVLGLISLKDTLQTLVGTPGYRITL

| Compound | AC50 (CAAX prenyl protease 2) | AC50 (Trypsin) | IC50 [1] | IC50 [2] | IC50 [3] | IC50 [4] | IC50 [5] | IC50 [6] | IC50 [7] | IC50 [8] | IC50 [9] | IC50 [10] |
| --- | --- | --- | --- | --- | --- | --- | --- | --- | --- | --- | --- | --- |
| C=CCOc1ccc(-c2nnc(S)o2)cc1 | 22.6 µM (active) | 3.91 µM (active) |  |  |  |  |  |  |  |  |  |  |
| CN1CCN(C(=S)C(=O)Nc2ccc(Br)cc2)CC1 |  |  | > 158 µM (not active) | 6.57 µM (active) | 4 µM (active) | > 80 µM (inactive) | 0.431 µM (active) | > 100 µM (inactive) | 8.52 µM (active) | 9.73 µM (active) | 0.386 µM (active) | 5.11 µM (active) |
